Reference: patent US9260408B2, “Dihydroquinoline-2-one derivatives” (Hoffmann-La Roche Inc., priority 2011, dated 2016)
Where a name gives a salt, the structure may show the parent alone.

Experiments:
human CYP11B2 = target: T1, human CYP11B2 (Homo sapiens, UniProt P19099); assay: G-402 cellular enzyme assay, human CYP11B2 (aldosterone release, HTRF); format: cell-based; settings: G-402 cells expressing human CYP11B2; 1 μM Deoxycorticosterone
T1 construct: expressed in transfected cells
T1 sequence (P19099 25-503): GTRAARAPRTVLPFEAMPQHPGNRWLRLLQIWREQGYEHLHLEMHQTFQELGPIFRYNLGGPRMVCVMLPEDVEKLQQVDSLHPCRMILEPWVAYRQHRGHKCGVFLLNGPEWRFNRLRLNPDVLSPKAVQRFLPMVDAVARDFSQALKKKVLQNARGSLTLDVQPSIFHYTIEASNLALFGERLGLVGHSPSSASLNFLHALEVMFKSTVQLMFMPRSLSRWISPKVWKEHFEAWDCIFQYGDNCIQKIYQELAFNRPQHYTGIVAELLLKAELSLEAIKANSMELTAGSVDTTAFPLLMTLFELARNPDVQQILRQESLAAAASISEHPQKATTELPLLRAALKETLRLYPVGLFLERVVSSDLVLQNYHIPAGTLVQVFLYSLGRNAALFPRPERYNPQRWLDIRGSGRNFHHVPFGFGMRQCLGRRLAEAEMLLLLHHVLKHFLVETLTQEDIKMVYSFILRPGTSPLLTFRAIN
Outline: (§1)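 EC50 comes from least-squares fitting of a 4-parameter MMF curve to steroid product levels, measured by HTRF as aldosterone for CYP11B2 or cortisol for CYP11B1. Stably transfected G-402 host cells were given substrate (1 μM deoxycorticosterone or deoxycortisol, respectively) with inhibitor for 16 h in medium with 2.5% charcoal-treated FCS.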

human CYP11B1 = target: T2, human CYP11B1 (Homo sapiens, UniProt P15538); assay: G-402 cellular enzyme assay, human CYP11B1 (cortisol release, HTRF); format: cell-based; settings: G-402 cells expressing human CYP11B1; 1 μM Deoxycortisol
T2 construct: expressed in transfected cells
T2 sequence (P15538 25-503): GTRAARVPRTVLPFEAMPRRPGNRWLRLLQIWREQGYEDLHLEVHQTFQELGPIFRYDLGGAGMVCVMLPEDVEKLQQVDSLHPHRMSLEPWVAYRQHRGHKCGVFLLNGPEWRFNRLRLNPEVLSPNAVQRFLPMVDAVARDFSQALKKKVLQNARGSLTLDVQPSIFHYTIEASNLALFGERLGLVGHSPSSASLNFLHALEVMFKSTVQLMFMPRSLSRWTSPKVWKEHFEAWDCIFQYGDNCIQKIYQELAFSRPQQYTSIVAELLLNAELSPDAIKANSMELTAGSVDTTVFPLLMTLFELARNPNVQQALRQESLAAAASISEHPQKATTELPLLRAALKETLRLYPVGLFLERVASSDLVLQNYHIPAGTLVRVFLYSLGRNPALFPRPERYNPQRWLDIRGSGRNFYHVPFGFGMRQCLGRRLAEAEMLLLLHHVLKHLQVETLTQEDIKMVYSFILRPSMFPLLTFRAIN
Outline: as §1

| SMILES | EC50 (human CYP11B2) | EC50 (human CYP11B1) |
| --- | --- | --- |
| CC(C)[C@H](CO)Nc1cncc(-c2ccc3c(c2)CCC(=O)N3C)n1 [Example 31, 6-[6-((R)-1-Hydroxymethyl-2-methyl-propylamino)-pyrazin-2-yl]-1-methyl-3,4-dihydro-1H-quinolin-2-one] | 172 nM | > 3000 nM |
| CCS(=O)(=O)NCc1cncc(-c2ccc3c(n2)CCC(=O)N3C)c1 [Example 32, Ethanesulfonic acid [5-(5-methyl-6-oxo-5,6,7,8-tetrahydro-[1,5]naphthyridin-2-yl)-pyridin-3-ylmethyl]-amide] | 1290 nM | > 10000 nM |
| O=C1CCc2nc(-c3cccnc3)ccc2N1 [Example 33, 6-Pyridin-3-yl-3,4-dihydro-1H-[1,5]naphthyridin-2-one] | 1260 nM | > 10000 nM |
| CN1C(=O)CCc2nc(-c3cccnc3)ccc21 [Example 34, 1-Methyl-6-pyridin-3-yl-3,4-dihydro-1H-[1,5]naphthyridin-2-one] | 416 nM | 29200 nM |
| CN1C(=O)CCc2cc(-c3cccnc3)ncc21 [Example 35, 1-Methyl-6-pyridin-3-yl-3,4-dihydro-1H-[1,7]naphthyridin-2-one] | 325 nM | > 10000 nM |
| CN1C(=O)CCc2cc(-c3cncc(CN)c3)ccc21 [Example 36, 6-(5-Aminomethyl-pyridin-3-yl)-1-methyl-3,4-dihydro-1H-quinolin-2-one] | 71 nM | 2570 nM |
| CCC(=O)NCc1cncc(-c2ccc3c(c2)CCC(=O)N3C)c1 [Example 37, N-[5-(1-Methyl-2-oxo-1,2,3,4-tetrahydro-quinolin-6-yl)-pyridin-3-ylmethyl]-propionamide] | 44 nM | 1590 nM |
| CC(C)S(=O)(=O)NCc1cncc(-c2ccc3c(c2)CCC(=O)N3C)c1 [Example 38, Propane-2-sulfonic acid [5-(1-methyl-2-oxo-1,2,3,4-tetrahydro-quinolin-6-yl)-pyridin-3-ylmethyl]-amide] | 81 nM | 1500 nM |
| CN1C(=O)CCc2cc(-c3cncc(OCCNC(=O)OC(C)(C)C)c3)ccc21 [Example 39, {2-[5-(1-Methyl-2-oxo-1,2,3,4-tetrahydro-quinolin-6-yl)-pyridin-3-yloxy]-ethyl}-carbamic acid tert-butyl ester] | 10 nM | 120 nM |
| COc1cc(C(=O)NCc2cncc(-c3ccc4c(c3)CCC(=O)N4C)c2)on1 [Example 40, 3-Methoxy-isoxazole-5-carboxylic acid [5-(1-methyl-2-oxo-1,2,3,4-tetrahydro-quinolin-6-yl)-pyridin-3-ylmethyl]-amide] | 15 nM | 750 nM |
| CN1C(=O)CCc2cc(-c3cncc(CNC(=O)C4CC4)c3)ccc21 [Example 41, Cyclopropanecarboxylic acid [5-(1-methyl-2-oxo-1,2,3,4-tetrahydro-quinolin-6-yl)-pyridin-3-ylmethyl]-amide] | 67 nM | 5560 nM |
| CN1C(=O)CCc2cc(-c3cncc(OCCN)c3)ccc21 [Example 42, 6-[5-(2-amino-ethoxy)-pyridin-3-yl]-1-methyl-3,4-dihydro-1H-quinolin-2-one hydrochloride] | 28 nM | 160 nM |
| CCC(=O)NCCOc1cncc(-c2ccc3c(c2)CCC(=O)N3C)c1 [Example 43, N-{2-[5-(1-Methyl-2-oxo-1,2,3,4-tetrahydro-quinolin-6-yl)-pyridin-3-yloxy]-ethyl}-propionamide] | 40 nM | 1560 nM |
| CN1C(=O)CCc2cc(-c3cncc(CN4CCCCS4(=O)=O)c3)ccc21 [Example 44, 6-[5-(1,1-Dioxo-1λ^6-[1,2]thiazinan-2-ylmethyl)-pyridin-3-yl]-1-methyl-3,4-dihydro-1H-quinolin-2-one] | 5 nM | 568 nM |
| CN1C(=O)CCc2cc(-c3cncc(OC[C@@H]4CCN4C(=O)OC(C)(C)C)c3)ccc21 [Example 45, (S)-2-[5-(1-Methyl-2-oxo-1,2,3,4-tetrahydro-quinolin-6-yl)-pyridin-3-yloxymethyl]-azetidine-1-carboxylic acid tert-butyl ester] | 87 nM | 863 nM |
| CN1C(=O)CCc2cc(-c3cncc(O[C@@H]4CCN(C(=O)OC(C)(C)C)C4)c3)c(F)cc21 [Example 46, (R)-3-[5-(7-Fluoro-1-methyl-2-oxo-1,2,3,4-tetrahydro-quinolin-6-yl)-pyridin-3-yloxy]-pyrrolidine-1-carboxylic acid tert-butyl ester] | 5 nM | 298 nM |
| CN1C(=O)CCc2cc(-c3cncc(OC4CN(C(=O)OC(C)(C)C)C4)c3)ccc21 [Example 47, 3-[5-(1-Methyl-2-oxo-1,2,3,4-tetrahydro-quinolin-6-yl)-pyridin-3-yloxy]-azetidine-1-carboxylic acid tert-butyl ester] | 3 nM | 61 nM |
| CN1C(=O)CCc2cc(-c3cncc(O[C@H]4CCN(C(=O)OC(C)(C)C)C4)c3)ccc21 [Example 48, (S)-3-[5-(1-Methyl-2-oxo-1,2,3,4-tetrahydro-quinolin-6-yl)-pyridin-3-yloxy]-pyrrolidine-1-carboxylic acid tert-butyl ester] | 49 nM | 392 nM |
| CN1C(=O)CCc2cc(-c3cncc(O[C@H]4CCCN(C(=O)OC(C)(C)C)C4)c3)ccc21 [Example 49, (S)-3-[5-(1-Methyl-2-oxo-1,2,3,4-tetrahydro-quinolin-6-yl)-pyridin-3-yloxy]-piperidine-1-carboxylic acid tert-butyl ester] | 271 nM | 1000 nM |
| CN1C(=O)CCc2cc(-c3cncc(OC4CCN(C(=O)OC(C)(C)C)CC4)c3)ccc21 [Example 50, 4-[5-(1-Methyl-2-oxo-1,2,3,4-tetrahydro-quinolin-6-yl)-pyridin-3-yloxy]-piperidine-1-carboxylic acid tert-butyl ester] | 3 nM | 24 nM |
| CN1C(=O)CCc2cc(-c3cncc(OC[C@@H]4CCCN4C(=O)OC(C)(C)C)c3)ccc21 [Example 51, (S)-2-[5-(1-Methyl-2-oxo-1,2,3,4-tetrahydro-quinolin-6-yl)-pyridin-3-yloxymethyl]-pyrrolidine-1-carboxylic acid tert-butyl ester] | 32 nM | 1870 nM |
| CN1C(=O)CCc2cc(-c3cncc(O[C@H]4CCN(C(=O)OC(C)(C)C)C4)c3)c(F)cc21 [Example 52, (S)-3-[5-(7-fluoro-1-methyl-2-oxo-1,2,3,4-tetrahydro-quinolin-6-yl)-pyridin-3-yloxy]-pyrrolidine-1-carboxylic acid tert-butyl ester] | 30 nM | 139 nM |
| CN1C(=O)CCc2cc(-c3cncc(O[C@@H]4CCN(C(=O)OC(C)(C)C)C4)c3)ccc21 [Example 53, (R)-3-[5-(1-Methyl-2-oxo-1,2,3,4-tetrahydro-quinolin-6-yl)-pyridin-3-yloxy]-pyrrolidine-1-carboxylic acid tert-butyl ester] | 8 nM | 453 nM |
| CCS(=O)(=O)NCc1cncc(-c2ccc3c(c2)CCC(=O)N3)c1 [Example 55, ethanesulfonic acid [5-(2-oxo-1,2,3,4-tetrahydro-quinolin-6-yl)-pyridin-3-ylmethyl]-amide] | 682 nM | 11100 nM |
| CN1C(=O)CCc2cc(-c3cncc(C4(N)CC4)c3)ccc21 [Example 59, 6-[5-(1-Amino-cyclopropyl)-pyridin-3-yl]-1-methyl-3,4-dihydro-1H-quinolin-2-one] | 33 nM | 710 nM |
